Test results published in doi:10.1101/2023.11.24.568596v1 (biorxiv, 2023).
Values belong to the compound of their own block, whether it stands above or below them.

Assays:
Conditions in all cases: binder
MSK1b = MSK1b (Homo sapiens, UniProt O75582)
BIKE = BIKE (Homo sapiens, UniProt Q9NSY1)
ABL1 = ABL1 (Homo sapiens, UniProt P00519)
MST4 = MST4 (Homo sapiens, UniProt Q9P289)
p38a = p38a (Homo sapiens, UniProt Q16539)
CLK1 = CLK1 (Homo sapiens, UniProt P49759)
CaMK2d = CaMK2d (Homo sapiens, UniProt Q13557)
CK2a1 = CK2a1 (Homo sapiens, UniProt P68400)
Sequence of CK2a1 (P68400 whole entry): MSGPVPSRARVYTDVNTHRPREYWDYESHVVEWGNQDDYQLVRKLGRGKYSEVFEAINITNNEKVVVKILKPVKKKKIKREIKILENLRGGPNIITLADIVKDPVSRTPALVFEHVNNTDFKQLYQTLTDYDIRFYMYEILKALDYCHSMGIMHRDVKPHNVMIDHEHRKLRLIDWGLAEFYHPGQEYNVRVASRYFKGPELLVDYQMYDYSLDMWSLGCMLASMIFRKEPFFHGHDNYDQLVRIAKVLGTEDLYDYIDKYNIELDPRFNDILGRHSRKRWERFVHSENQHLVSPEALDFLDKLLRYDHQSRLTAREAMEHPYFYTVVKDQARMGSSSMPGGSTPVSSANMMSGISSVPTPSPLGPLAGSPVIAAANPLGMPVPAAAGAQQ

OSR1 = OSR1 (Homo sapiens, UniProt O95747)
Sequence of OSR1 (O95747 whole entry): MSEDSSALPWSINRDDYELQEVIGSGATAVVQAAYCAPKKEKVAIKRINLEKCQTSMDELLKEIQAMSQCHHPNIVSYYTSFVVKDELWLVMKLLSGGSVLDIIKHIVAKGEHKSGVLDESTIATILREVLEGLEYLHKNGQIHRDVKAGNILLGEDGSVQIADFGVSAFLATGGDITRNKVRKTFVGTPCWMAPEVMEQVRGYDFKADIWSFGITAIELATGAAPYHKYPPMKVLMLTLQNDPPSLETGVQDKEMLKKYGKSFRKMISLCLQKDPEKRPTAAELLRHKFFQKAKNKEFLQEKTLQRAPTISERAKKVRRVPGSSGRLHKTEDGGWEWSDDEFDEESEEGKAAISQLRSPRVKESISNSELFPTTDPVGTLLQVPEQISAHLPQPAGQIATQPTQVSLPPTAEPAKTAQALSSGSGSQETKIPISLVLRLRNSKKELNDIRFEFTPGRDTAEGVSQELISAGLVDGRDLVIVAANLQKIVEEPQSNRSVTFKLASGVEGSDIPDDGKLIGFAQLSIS

CDKL1 = CDKL1 (Homo sapiens, UniProt Q00532)
Sequence of CDKL1 (Q00532 whole entry): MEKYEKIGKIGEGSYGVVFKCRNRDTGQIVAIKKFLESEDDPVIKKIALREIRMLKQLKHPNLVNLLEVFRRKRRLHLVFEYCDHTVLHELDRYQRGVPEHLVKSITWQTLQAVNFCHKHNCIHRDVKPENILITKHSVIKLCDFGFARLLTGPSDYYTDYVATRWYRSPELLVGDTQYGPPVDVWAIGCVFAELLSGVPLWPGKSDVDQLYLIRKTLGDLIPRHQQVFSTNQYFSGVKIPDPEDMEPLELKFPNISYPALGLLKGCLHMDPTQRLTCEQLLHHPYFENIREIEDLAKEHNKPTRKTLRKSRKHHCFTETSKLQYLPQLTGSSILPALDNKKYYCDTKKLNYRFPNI

MRCKa = MRCKa (Homo sapiens, UniProt Q5VT25)
CaMK1g = CaMK1g (Homo sapiens, UniProt Q96NX5)
Sequence of CaMK1g (Q96NX5 whole entry): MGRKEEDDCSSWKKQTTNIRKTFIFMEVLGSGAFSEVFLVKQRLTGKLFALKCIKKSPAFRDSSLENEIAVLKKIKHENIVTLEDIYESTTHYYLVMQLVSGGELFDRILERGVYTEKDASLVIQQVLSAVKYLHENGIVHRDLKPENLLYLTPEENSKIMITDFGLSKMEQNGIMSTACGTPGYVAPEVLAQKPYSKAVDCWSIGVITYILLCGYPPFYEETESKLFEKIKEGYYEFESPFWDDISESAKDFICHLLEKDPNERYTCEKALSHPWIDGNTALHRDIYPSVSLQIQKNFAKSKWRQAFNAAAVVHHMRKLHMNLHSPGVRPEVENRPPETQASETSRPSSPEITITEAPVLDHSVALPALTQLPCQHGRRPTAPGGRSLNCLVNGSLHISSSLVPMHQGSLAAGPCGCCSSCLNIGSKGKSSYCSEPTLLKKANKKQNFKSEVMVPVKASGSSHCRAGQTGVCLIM

FGFR2 = FGFR2 (Homo sapiens, UniProt P21802)
Sequence of FGFR2 (P21802 whole entry): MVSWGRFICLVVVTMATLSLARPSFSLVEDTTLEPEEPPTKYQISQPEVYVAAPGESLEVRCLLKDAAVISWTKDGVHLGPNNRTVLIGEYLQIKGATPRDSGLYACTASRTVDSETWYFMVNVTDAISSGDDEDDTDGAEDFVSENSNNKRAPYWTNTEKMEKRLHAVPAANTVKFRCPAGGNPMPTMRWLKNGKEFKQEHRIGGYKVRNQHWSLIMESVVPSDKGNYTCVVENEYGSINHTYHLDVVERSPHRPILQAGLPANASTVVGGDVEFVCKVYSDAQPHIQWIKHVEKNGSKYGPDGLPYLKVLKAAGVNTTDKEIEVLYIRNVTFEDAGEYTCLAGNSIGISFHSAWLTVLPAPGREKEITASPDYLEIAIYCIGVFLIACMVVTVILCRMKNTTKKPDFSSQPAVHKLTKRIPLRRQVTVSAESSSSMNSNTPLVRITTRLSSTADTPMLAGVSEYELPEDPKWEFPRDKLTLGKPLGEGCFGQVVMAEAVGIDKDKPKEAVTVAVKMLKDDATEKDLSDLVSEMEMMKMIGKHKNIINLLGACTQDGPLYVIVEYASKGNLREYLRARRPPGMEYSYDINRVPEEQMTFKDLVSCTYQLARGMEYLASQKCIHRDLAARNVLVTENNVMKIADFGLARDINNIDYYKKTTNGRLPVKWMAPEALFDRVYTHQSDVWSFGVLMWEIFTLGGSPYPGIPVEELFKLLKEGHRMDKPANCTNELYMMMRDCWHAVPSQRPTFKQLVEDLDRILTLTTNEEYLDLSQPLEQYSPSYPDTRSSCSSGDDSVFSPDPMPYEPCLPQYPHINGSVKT

CaMK1d = CaMK1d (Homo sapiens, UniProt Q8IU85)
Sequence of CaMK1d (Q8IU85 whole entry): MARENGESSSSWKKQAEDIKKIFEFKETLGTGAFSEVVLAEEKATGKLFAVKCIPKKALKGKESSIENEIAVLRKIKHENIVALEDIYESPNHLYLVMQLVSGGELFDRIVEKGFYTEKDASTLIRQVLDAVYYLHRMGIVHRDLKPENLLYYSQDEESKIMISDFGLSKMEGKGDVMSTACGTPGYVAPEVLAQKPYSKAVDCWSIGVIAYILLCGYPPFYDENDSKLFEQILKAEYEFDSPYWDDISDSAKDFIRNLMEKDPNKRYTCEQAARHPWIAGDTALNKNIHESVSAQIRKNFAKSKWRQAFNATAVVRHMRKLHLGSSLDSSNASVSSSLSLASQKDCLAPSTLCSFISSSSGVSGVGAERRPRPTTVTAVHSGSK

PIM3 = PIM3 (Homo sapiens, UniProt Q86V86)
MYT1 = molecular target: T1, MYT1 (Homo sapiens, UniProt Q99640)
T1 sequence (Q99640 1-499): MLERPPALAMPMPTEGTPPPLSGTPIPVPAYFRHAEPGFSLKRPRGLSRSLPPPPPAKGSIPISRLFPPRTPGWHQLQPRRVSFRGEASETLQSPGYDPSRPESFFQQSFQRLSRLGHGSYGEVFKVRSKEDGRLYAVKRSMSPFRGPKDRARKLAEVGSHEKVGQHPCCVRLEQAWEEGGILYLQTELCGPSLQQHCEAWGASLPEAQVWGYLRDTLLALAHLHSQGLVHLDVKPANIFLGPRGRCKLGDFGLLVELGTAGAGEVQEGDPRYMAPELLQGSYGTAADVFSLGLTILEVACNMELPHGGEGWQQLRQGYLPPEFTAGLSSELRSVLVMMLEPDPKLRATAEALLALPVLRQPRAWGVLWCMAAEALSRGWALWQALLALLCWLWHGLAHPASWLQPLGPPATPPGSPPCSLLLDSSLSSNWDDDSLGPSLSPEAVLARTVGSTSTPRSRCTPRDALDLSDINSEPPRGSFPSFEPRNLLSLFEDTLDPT

EphA5 = EphA5 (Homo sapiens, UniProt P54756)
Sequence of EphA5 (P54756 whole entry): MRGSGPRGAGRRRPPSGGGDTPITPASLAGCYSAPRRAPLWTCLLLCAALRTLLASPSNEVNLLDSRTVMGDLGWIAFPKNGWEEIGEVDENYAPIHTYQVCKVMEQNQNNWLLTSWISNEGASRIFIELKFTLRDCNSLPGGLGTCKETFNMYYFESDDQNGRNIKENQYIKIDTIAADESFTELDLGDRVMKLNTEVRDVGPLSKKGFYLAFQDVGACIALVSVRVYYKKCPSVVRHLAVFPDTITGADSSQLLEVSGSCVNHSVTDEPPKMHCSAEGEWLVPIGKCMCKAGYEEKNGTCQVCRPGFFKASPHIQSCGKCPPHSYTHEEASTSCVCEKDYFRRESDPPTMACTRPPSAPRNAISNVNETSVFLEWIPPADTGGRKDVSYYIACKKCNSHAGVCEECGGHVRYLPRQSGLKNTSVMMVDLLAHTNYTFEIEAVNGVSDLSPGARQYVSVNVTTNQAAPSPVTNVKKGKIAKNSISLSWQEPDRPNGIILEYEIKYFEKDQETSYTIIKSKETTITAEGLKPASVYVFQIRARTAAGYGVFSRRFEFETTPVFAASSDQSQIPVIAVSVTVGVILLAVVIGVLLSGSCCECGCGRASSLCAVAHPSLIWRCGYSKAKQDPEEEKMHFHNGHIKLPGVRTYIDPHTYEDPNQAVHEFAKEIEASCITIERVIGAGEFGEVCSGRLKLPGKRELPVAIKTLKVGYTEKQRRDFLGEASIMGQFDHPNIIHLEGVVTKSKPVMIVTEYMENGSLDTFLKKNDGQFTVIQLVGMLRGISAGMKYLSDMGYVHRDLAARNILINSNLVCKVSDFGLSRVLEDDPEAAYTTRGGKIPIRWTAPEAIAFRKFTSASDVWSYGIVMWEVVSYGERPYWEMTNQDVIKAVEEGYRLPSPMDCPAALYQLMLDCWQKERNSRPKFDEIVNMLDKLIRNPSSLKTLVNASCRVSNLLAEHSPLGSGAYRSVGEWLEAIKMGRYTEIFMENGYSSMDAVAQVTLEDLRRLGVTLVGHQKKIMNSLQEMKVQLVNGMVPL

AurA = molecular target: T2, AurA (Homo sapiens, UniProt O14965)
T2 sequence (O14965 1-403): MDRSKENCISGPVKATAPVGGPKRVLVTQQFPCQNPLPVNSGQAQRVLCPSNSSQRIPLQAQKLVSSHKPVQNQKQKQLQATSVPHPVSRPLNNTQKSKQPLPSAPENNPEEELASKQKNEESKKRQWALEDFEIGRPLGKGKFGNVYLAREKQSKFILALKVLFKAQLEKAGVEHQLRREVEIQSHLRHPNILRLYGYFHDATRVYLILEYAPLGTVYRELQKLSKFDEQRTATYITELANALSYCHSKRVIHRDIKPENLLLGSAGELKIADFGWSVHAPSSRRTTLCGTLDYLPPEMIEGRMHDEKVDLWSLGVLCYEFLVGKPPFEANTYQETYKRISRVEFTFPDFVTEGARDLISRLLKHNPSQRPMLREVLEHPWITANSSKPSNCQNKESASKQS

Sequence of CLK1 (P49759 whole entry): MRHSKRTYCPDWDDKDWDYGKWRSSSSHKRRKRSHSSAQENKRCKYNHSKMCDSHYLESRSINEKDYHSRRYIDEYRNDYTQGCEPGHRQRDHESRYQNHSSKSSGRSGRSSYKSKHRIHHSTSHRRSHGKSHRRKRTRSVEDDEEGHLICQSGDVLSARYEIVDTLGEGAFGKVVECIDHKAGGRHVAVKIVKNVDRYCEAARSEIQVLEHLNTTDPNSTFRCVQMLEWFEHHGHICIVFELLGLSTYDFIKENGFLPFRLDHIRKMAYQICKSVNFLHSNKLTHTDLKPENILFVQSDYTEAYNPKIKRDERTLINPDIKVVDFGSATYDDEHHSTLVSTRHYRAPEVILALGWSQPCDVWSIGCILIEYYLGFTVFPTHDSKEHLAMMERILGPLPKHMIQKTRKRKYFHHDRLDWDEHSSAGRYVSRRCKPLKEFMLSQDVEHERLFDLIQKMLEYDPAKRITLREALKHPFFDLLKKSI
Sequence of MST4 (Q9P289 whole entry): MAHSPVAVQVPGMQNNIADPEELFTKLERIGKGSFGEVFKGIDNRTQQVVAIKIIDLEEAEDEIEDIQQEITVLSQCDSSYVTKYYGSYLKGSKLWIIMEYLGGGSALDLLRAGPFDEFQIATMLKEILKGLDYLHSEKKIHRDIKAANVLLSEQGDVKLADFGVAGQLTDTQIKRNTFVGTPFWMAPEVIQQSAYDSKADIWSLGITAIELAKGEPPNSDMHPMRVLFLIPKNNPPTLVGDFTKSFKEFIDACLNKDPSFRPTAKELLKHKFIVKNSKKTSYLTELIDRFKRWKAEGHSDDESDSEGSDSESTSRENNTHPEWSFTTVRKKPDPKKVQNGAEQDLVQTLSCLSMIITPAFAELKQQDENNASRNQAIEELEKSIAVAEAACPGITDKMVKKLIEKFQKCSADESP

SMILES: CNc1ncc2cc(-c3ccc(-c4cccc(C)n4)cc3Cl)c(=O)n(CCCCN)c2n1 [compound 20, MRLW5]
ΔTm MRLW5 (20) (MSK1b): 2.9 °C | ΔTm MRLW5 (20) (BIKE): 3.7 °C | ΔTm MRLW5 (20) (ABL1): 4.9 °C | ΔTm MRLW5 (20) (MST4): 11.4 °C | ΔTm MRLW5 (20) (p38a): 1.0 °C | ΔTm MRLW5 (20) (CLK1): 0.3 °C | ΔTm MRLW5 (20) (CaMK2d): 0.1 °C | ΔTm MRLW5 (20) (CK2a1): -0.2 °C | ΔTm MRLW5 (20) (OSR1): 1.6 °C | ΔTm MRLW5 (20) (CDKL1): -0.1 °C | ΔTm MRLW5 (20) (MRCKa): 1.0 °C | ΔTm MRLW5 (20) (CaMK1g): 3.9 °C | ΔTm MRLW5 (20) (FGFR2): 1.9 °C | ΔTm MRLW5 (20) (CaMK1d): 7.2 °C | ΔTm MRLW5 (20) (PIM3): -1.2 °C | ΔTm MRLW5 (20) (MYT1): -1.0 °C | ΔTm MRLW5 (20) (EphA5): 3.3 °C

SMILES: CNc1ncc2cc(-c3ccc(-c4cccc(C)n4)cc3Cl)c(=O)n(CCC3CCNCC3)c2n1 [compound 22, 6-(2-Chloro-4-(6-methylpyridin-2-yl)phenyl)-2-(methylamino)-8-(2-(piperidin-4-yl)ethyl)pyrido[2,3-d]pyrimidin-7(8H)-one]
ΔTm 22 (MSK1b): 0.1 °C | ΔTm 22 (BIKE): 7.1 °C | ΔTm 22 (ABL1): 4.9 °C | ΔTm 22 (MST4): 7.8 °C | ΔTm 22 (p38a): 0.7 °C | ΔTm 22 (CLK1): -1.6 °C | ΔTm 22 (CaMK2d): 0.0 °C | ΔTm 22 (CK2a1): -0.6 °C | ΔTm 22 (OSR1): 0.7 °C | ΔTm 22 (CDKL1): 0.4 °C | ΔTm 22 (MRCKa): 1.8 °C | ΔTm 22 (CaMK1g): 5.1 °C | ΔTm 22 (FGFR2): 3.9 °C | ΔTm 22 (CaMK1d): 8.5 °C | ΔTm 22 (PIM3): -1.2 °C | ΔTm 22 (MYT1): -4.0 °C | ΔTm 22 (EphA5): 4.1 °C

SMILES: CNc1ncc2cc(-c3ccc(-c4cccc(C)n4)cc3Cl)c(=O)n(C[C@H]3CC[C@H](N)CC3)c2n1 [compound 23, 23]
ΔTm 23 (MSK1b): 6.4 °C | ΔTm 23 (BIKE): 6.9 °C | ΔTm 23 (ABL1): 7.9 °C | ΔTm 23 (MST4): 8.2 °C | ΔTm 23 (p38a): 6.7 °C | ΔTm 23 (CLK1): 0.8 °C | ΔTm 23 (CaMK2d): -0.2 °C | ΔTm 23 (CK2a1): -0.4 °C | ΔTm 23 (OSR1): 2.3 °C | ΔTm 23 (CDKL1): 0.1 °C | ΔTm 23 (MRCKa): 2.9 °C | ΔTm 23 (CaMK1g): 9.5 °C | ΔTm 23 (FGFR2): 2.9 °C | ΔTm 23 (CaMK1d): 9.5 °C | ΔTm 23 (PIM3): 0.3 °C | ΔTm 23 (MYT1): -0.9 °C | ΔTm 23 (EphA5): 4.0 °C

SMILES: Cc1cccc(-c2ccc(-c3cc4cnc(NC(CO)CO)nc4n(CCCCN)c3=O)c(Cl)c2)n1 [compound 24, 8-(4-Aminobutyl)-6-(2-chloro-4-(6-methylpyridin-2-yl)phenyl)-2-((1,3-dihydroxypropan-2-yl)amino)pyrido[2,3-d]pyrimidin-7(8H)-one]
ΔTm MR24 (24) (MSK1b): -1.0 °C | ΔTm MR24 (24) (BIKE): -0.4 °C | ΔTm MR24 (24) (ABL1): 1.4 °C | ΔTm MR24 (24) (MST4): 9.1 °C | ΔTm MR24 (24) (p38a): 2.8 °C | ΔTm MR24 (24) (CLK1): -0.4 °C | ΔTm MR24 (24) (CaMK2d): -0.2 °C | ΔTm MR24 (24) (CK2a1): 0.0 °C | ΔTm MR24 (24) (OSR1): -0.5 °C | ΔTm MR24 (24) (CDKL1): 0.9 °C | ΔTm MR24 (24) (MRCKa): -0.7 °C | ΔTm MR24 (24) (CaMK1g): 1.4 °C | ΔTm MR24 (24) (FGFR2): 0.8 °C | ΔTm MR24 (24) (CaMK1d): 0.5 °C | ΔTm MR24 (24) (PIM3): -1.9 °C | ΔTm MR24 (24) (MYT1): -2.0 °C | ΔTm MR24 (24) (EphA5): -0.4 °C

The remaining lines, values ahead:

ΔTm 25 (MSK1b): 1.4 °C | ΔTm 25 (BIKE): 1.8 °C | ΔTm 25 (ABL1): 3.9 °C | ΔTm 25 (MST4): 9.6 °C | ΔTm 25 (p38a): 6.1 °C | ΔTm 25 (CLK1): 1.4 °C | ΔTm 25 (CaMK2d): -0.2 °C | ΔTm 25 (CK2a1): -0.4 °C | ΔTm 25 (OSR1): 0.4 °C | ΔTm 25 (CDKL1): 2.1 °C | ΔTm 25 (MRCKa): 0.0 °C | ΔTm 25 (CaMK1g): 6.5 °C | ΔTm 25 (FGFR2): 1.7 °C | ΔTm 25 (CaMK1d): 5.3 °C | ΔTm 25 (PIM3): -0.8 °C | ΔTm 25 (MYT1): -2.3 °C | ΔTm 25 (EphA5): 3.2 °C
SMILES: Cc1cccc(-c2ccc(-c3cc4cnc(NCCCc5ccc(N)cc5)nc4n(CCCCN)c3=O)c(Cl)c2)n1 [compound 25, 8-(4-Aminobutyl)-2-((3-(4-aminophenyl)propyl)amino)-6-(2-chloro-4-(6-methylpyridin-2-yl)phenyl)pyrido[2,3-d]pyrimidin-7(8H)-one]

ΔTm MR26 (26) (MSK1b): -0.4 °C | ΔTm MR26 (26) (BIKE): 0.7 °C | ΔTm MR26 (26) (ABL1): 2.9 °C | ΔTm MR26 (26) (MST4): 11.2 °C | ΔTm MR26 (26) (p38a): 4.0 °C | ΔTm MR26 (26) (CLK1): -0.1 °C | ΔTm MR26 (26) (CaMK2d): -0.1 °C | ΔTm MR26 (26) (CK2a1): 0.6 °C | ΔTm MR26 (26) (OSR1): -0.1 °C | ΔTm MR26 (26) (CDKL1): 0.5 °C | ΔTm MR26 (26) (MRCKa): -0.2 °C | ΔTm MR26 (26) (CaMK1g): 4.3 °C | ΔTm MR26 (26) (FGFR2): 1.4 °C | ΔTm MR26 (26) (CaMK1d): 4.1 °C | ΔTm MR26 (26) (PIM3): -0.1 °C | ΔTm MR26 (26) (MYT1): -1.1 °C | ΔTm MR26 (26) (EphA5): 3.5 °C
SMILES: Cc1cccc(-c2ccc(-c3cc4cnc(NCCCN5CCOCC5)nc4n(CCCCN)c3=O)c(Cl)c2)n1 [compound 26, MR26]

dTm 33 (AurA): 2.8 °C
SMILES: Cc1cccc(-c2ccc(-c3cc4cnc(Nc5ccc(F)c(CO)c5)nc4n(CCCCN)c3=O)c(Cl)c2)n1 [compound 33, 8-(4-Aminobutyl)-6-(2-chloro-4-(6-methylpyridin-2-yl)phenyl)-2-((4-fluoro-3-(hydroxymethyl)phenyl)amino)pyrido[2,3-d]pyrimidin-7(8H)-one]

dTm 34 (AurA): 3.4 °C
SMILES: COc1ccc(O)c(Nc2ncc3cc(-c4ccc(-c5cccc(C)n5)cc4Cl)c(=O)n(CCCCN)c3n2)c1 [compound 34, 8-(4-Aminobutyl)-6-(2-chloro-4-(6-methylpyridin-2-yl)phenyl)-2-((2-hydroxy-5-methoxy-phenyl)amino)pyrido[2,3-d]pyrimidin-7(8H)-one]

dTm 35 (AurA): 8.6 °C
SMILES: COc1cc(N2CCOCC2)ccc1Nc1ncc2cc(-c3ccc(-c4cccc(C)n4)cc3Cl)c(=O)n(CCCCN)c2n1 [compound 35, 8-(4-Aminobutyl)-6-(2-chloro-4-(6-methylpyridin-2-yl)phenyl)-2-((2-methoxy-4-morpholino-phenyl)amino)pyrido[2,3-d]pyrimidin-7(8H)-one]

dTm 36 (AurA): 5.1 °C
SMILES: COc1cc(N2CCN(C)CC2)ccc1Nc1ncc2cc(-c3ccc(-c4cccc(C)n4)cc3Cl)c(=O)n(CCCCN)c2n1 [compound 36, 8-(4-Aminobutyl)-6-(2-chloro-4-(6-methylpyridin-2-yl)phenyl)-2-((2-methoxy-4-(4-methylpiperazin-1-yl)phenyl)amino)pyrido[2,3-d]pyrimidin-7(8H)-one]
